Structures are written as SMILES.

One data set in a line: Half life in mouse liver S9 fraction. In kind it is ADME, subcellular.
For orientation: half-life means how long it takes for the measured level to halve. Compound `CC(C)(CO)CNC1=NC(=O)/C(=C/c2csc(-c3cccc(OC(F)(F)F)c3O)n2)S1` showed a half-life of 84.2 min. The compound `O=C1N=C(NCC2CCN(CCO)CC2)S/C1=C\c1csc(-c2ccccc2O)n1` registered a half-life of more than 120 min. For the compound `O=C1N=C(NCC2(CO)CC2)S/C1=C\c1csc(-c2ccccc2O)n1`, the half-life is 28.9 min. Still for that read-out and setting: the same measure for `CC(C)(CO)CNC1=NC(=O)/C(=C/c2csc(-c3ccc(F)cc3O)n2)S1`: 45.6 min. `CC(C)(CO)CNC1=NC(=O)/C(=C/c2csc(-c3cccc(F)c3O)n2)S1`: the half-life came out at 44.4 min. In turn, `O=C1N=C(N[C@H]2CCC[C@@H]2CO)S/C1=C\c1csc(-c2cccc(F)c2O)n1` (stereo in doubt) came in with a half-life of 22.1 min.

A short description of the next data set: Half life in mouse liver microsomes. In kind it is ADME, Microsome.
On to `CN(C)CCNC1=NC(=O)/C(=C/c2csc(-c3ccc(OC(F)(F)F)cc3)n2)S1`, for which the half-life is more than 120 min.

The compound `O=C1N=C(N[C@H]2CC[C@H](O)CC2)S/C1=C\c1csc(-c2ccc(OC(F)(F)F)cc2)n1` showed a half-life of 781 min. In turn, `CC(C)(CO)CNC1=NC(=O)/C(=C/c2csc(-c3cccc(OC(F)(F)F)c3)n2)S1` showed a half-life of more than 120 min. `N=C1NC(=O)/C(=C/c2csc(-c3ccc(C(F)(F)F)cc3)n2)S1` showed a half-life of more than 100 min. `O=C1N=C(NCC2(CO)CCC2)S/C1=C\c1csc(-c2ccc(OC(F)(F)F)cc2)n1`: the half-life is more than 120 min. Same read-out and setting: the figure for `CN1CCC(CNC2=NC(=O)/C(=C/c3csc(-c4ccc(C(F)(F)F)cc4)n3)S2)CC1` is more than 120 min; for `CN(C)S(=O)(=O)Nc1cccc(-c2nc(/C=C3\SC(NCC(C)(C)CO)=NC3=O)cs2)c1` it is 7.56 min. For the compound `O=C1N=C(NCC2(CO)CC2)S/C1=C\c1csc(-c2ccc(OC(F)(F)F)cc2)n1`, the half-life was more than 120 min.

In turn, `O=C1NC(=S)S/C1=C\c1csc(-c2ccc(C(F)(F)F)cc2)n1` gave a half-life of 49 min. On the same count and under the same terms, the same measure for `CN(c1cccc(-c2nc(/C=C3\SC(NCC(C)(C)CO)=NC3=O)cs2)c1)S(C)(=O)=O`: 5.68 min.

In turn, `CN1CCC(CNC2=NC(=O)/C(=C/c3ccc(-c4cccc(Cl)c4)o3)S2)CC1` showed a half-life of more than 120 min.

`CN1CCC(CNC2=NC(=O)/C(=C/c3csc(-c4cccc(N(C)S(C)(=O)=O)c4)n3)S2)CC1` showed a half-life of 27.5 min. `CC(C)(CO)CNC1=NC(=O)/C(=C/c2csc(-c3ccc(OC(F)(F)F)cc3)n2)S1` displayed a half-life of more than 120 min.
